Measured values as given in ChEMBL document CHEMBL3596152, “Synthesis of 1-O-acetylbritannilactone analogues from Inula britannica and in vitro evaluation of their anticancer potential” (Medchemcomm, 2014).
Activity calls are given as the source filed them. No cut-off for these calls is given here.

What was measured:
HeLa [1] = experiment: Cytotoxicity against human HeLa cells assessed as reduction in cell viability incubated for 72 hrs by SRB assay; assay type: functional, cell-based
HCT-116 = experiment: Cytotoxicity against human HCT116 cells assessed as reduction in cell viability incubated for 72 hrs by SRB assay; assay type: functional, cell-based; conditions: HCT-116, 72 h
[2] = Cytotoxicity against human SGC7901 cells assessed as reduction in cell viability incubated for 72 hrs by SRB assay; assay type: functional, cell-based; conditions: SGC-7901, 72 h
HeLa [3] = experiment: Induction of apoptosis in human HeLa cells assessed as increase in cleaved caspase-3 levels at 3 uM incubated for 48 hrs by Western blotting method; assay type: functional, cell-based
[4] = Thiol reactivity in DMSO-d6 solution assessed as formation of 1-O-acetyl-6-O-benzoyl-13-(2-hydroxyethylthiol) britannilactone at 0.05 mmol in presence of beta-mercaptoethanol by 1H NMR Michael acceptor assay
HeLa [5] = experiment: Induction of apoptosis in human HeLa cells assessed as early apoptotic cells levels at 10 uM incubated for 72 hrs by annexin V-FITC and propidium iodide staining based flow cytometry (reference value: 1.4%); assay type: functional
[6] = Thiol reactivity in DMSO-d6 solution assessed as formation of 1,6-O,O-diacetyl-13-(2-hydroxyethylthiol) britannilactone at 0.05 mmol in presence of beta-mercaptoethanol by 1H NMR Michael acceptor assay
HeLa [7] = experiment: Induction of apoptosis in human HeLa cells assessed as necrotic cells levels at 10 uM incubated for 72 hrs by annexin V-FITC and propidium iodide staining based flow cytometry (reference value: 0.2%); assay type: functional
[8] = Thiol reactivity in DMSO-d6 solution at 0.05 mmol in presence of beta-mercaptoethanol by 1H NMR Michael acceptor assay
HeLa [9] = experiment: Induction of apoptosis in human HeLa cells assessed as late apoptotic cells levels at 10 uM incubated for 72 hrs by annexin V-FITC and propidium iodide staining based flow cytometry (reference value: 2.8%); assay type: functional

| SMILES | IC50 (HeLa [1]) | IC50 (HCT-116) | IC50 [2] | other results |
| --- | --- | --- | --- | --- |
| C=C1C(=O)O[C@@H]2CC(C)=C([C@@H](C)CCCOC(C)=O)[C@@H](OC(=O)c3ccc(C)cc3)[C@H]12 | 5.46 µM |  |  |  |
| O=c1[nH]cc(F)c(=O)[nH]1 [FLUOROURACIL] | 4.71 µM | 4.9 µM | 0.86 µM |  |
| COc1cc([C@@H]2c3cc4c(cc3[C@@H](O[C@@H]3O[C@@H]5CO[C@@H](C)O[C@H]5[C@H](O)[C@H]3O)[C@H]3COC(=O)[C@H]23)OCO4)cc(OC)c1O [ETOPOSIDE] | 2.97 µM | 2.13 µM | 6.56 µM | Activity (HeLa [3]): Active |
| C=C1C(=O)O[C@@H]2CC(C)=C([C@@H](C)CCCOC(C)=O)[C@@H](OC(C)=O)[C@H]12 | 11.2 µM | 10.1 µM | 15.9 µM | Activity [4]: Active; Activity (HeLa [5]): 6.9%; Activity [6]: Active; Activity (HeLa [7]): 11%; Activity [8]: Active; Activity (HeLa [9]): 24.4% |
| C=C1C(=O)O[C@@H]2CC(C)=C([C@@H](C)CCCOC(C)=O)[C@@H](OC(=O)CN3CCCC3)[C@H]12 | 12.7 µM | 20.5 µM | 18.4 µM |  |
| C=C1C(=O)O[C@@H]2CC(C)=C([C@@H](C)CCCOC(C)=O)[C@@H](OC(=O)c3ccc(OC)cc3)[C@H]12 | 8.85 µM |  |  |  |
| C=C1C(=O)O[C@@H]2CC(C)=C([C@@H](C)CCCOC(C)=O)[C@@H](OC(=O)CN3CCCCC3)[C@H]12 | 10.3 µM | 13.9 µM | 11.5 µM |  |
| CC(=O)OCCC[C@H](C)C1=C(C)C[C@H]2OC(=O)C(CSCCO)[C@H]2[C@@H]1OC(C)=O (stereo not given in full) | > 100 µM | > 100 µM | > 100 µM |  |
| C=C1C(=O)O[C@@H]2CC(C)=C([C@@H](C)CCCOC(C)=O)[C@@H](OC(=O)COc3ccc4c(C(F)(F)F)noc4c3)[C@H]12 | 19.2 µM | 21.5 µM | 19.7 µM |  |
| C=C1C(=O)O[C@@H]2CC(C)=C([C@@H](C)CCCOC(C)=O)[C@@H](OC(=O)COc3ccc4c(CC)noc4c3)[C@H]12 | 21.7 µM | 18.3 µM | 21.2 µM |  |
| C=C1C(=O)O[C@@H]2CC(C)=C([C@@H](C)CCCOC(C)=O)[C@@H](OC(=O)COc3ccc(C(=O)OCCC)cc3)[C@H]12 | 22.9 µM | 37.5 µM | 27.7 µM |  |
| C=C1C(=O)O[C@@H]2CC(C)=C([C@@H](C)CCCOC(C)=O)[C@@H](OC(=O)CN3CCOCC3)[C@H]12 | 13.9 µM | 16.3 µM | 14.1 µM |  |
| C=C1C(=O)O[C@@H]2CC(C)=C([C@@H](C)CCCOC(C)=O)[C@@H](O)[C@H]12 | 32.6 µM | 36.1 µM | 47.8 µM |  |
| CC(=O)OCCC[C@H](C)C1=C(C)C[C@H]2OC(=O)C(CSCCO)[C@H]2[C@@H]1OC(=O)c1ccccc1 (stereo not given in full) | > 100 µM | > 100 µM | > 100 µM |  |
